Data from patent US20240408216A1, “PROTEIN INHIBITOR OR DEGRADING AGENT, PHARMACEUTICAL COMPOSITION CONTAINING SAME AND PHARMACEUTICAL USE” (JING MEDICINE TECHNOLOGY (SHANGHAI) LTD., priority 2021, published 2024).
Read-outs that look alike come from different tables or passages of the source.

Legend:
[1] = test system: BaF3 (EGFR WT); test: Cell proliferation IC50 assay (Cell Titer GLO), BaF3 WT cells; type: cell-based; settings: Mus musculus, Ba/F3 EGFR, Table 6, 10 ng/ml EGF, 72 h
Protocol: (§1) IC50 of compounds in the present invention was determined by Cell Titer GLO reagent from Promega. The procedures are as follows:
(§2) Tumor cells were cultured in specified medium in an incubator at 37° C. and 5% CO2. The cells were passaged periodically. Cells at the logarithmic growth phase were collected for plating at a density of 2000-4000 cells/well. The next day, the compounds of the present invention were serially diluted and added to the cells, with DMSO being the negative control and the culture media without cells being the blank control. The plate was incubated in the incubator for 72 h. The cell viability assay was performed by adding the detection reagents to the cell culture media according to Cell Titer GLO reagent instructions and detecting luminescent signals on an EnVision microplate reader (PerkinElmer).
(§3) Inhibition of cell growth by the compounds of the present invention was plotted by Prism Graphpad software for statistically calculating the IC50 of the compound of the present invention.

[2] = test system: BaF3 (EGFR L858R/T790M/C797S); test: Cell proliferation IC50 assay (Cell Titer GLO), BaF3 LTC cells; type: cell-based; settings: Mus musculus, Ba/F3 EGFR, Table 6, 72 h
Protocol: as §1, §2, §3

[3] = target: T1, BaF3 (EGFR Del19/C797S) (Homo sapiens, UniProt P00533, C797S, cells depend on it, form not given); test: Cell proliferation IC50 assay (Cell Titer GLO), BaF3 DC cells; type: cell-based, mouse; settings: Table 6, 72 h
T1 construct: BaF3 (EGFR Del19/C797S)|DC|RPMI1640 + 10% FBS
T1 sequence (P00533 with tags, fused parts or gaps DEL746-750/C797S, form open): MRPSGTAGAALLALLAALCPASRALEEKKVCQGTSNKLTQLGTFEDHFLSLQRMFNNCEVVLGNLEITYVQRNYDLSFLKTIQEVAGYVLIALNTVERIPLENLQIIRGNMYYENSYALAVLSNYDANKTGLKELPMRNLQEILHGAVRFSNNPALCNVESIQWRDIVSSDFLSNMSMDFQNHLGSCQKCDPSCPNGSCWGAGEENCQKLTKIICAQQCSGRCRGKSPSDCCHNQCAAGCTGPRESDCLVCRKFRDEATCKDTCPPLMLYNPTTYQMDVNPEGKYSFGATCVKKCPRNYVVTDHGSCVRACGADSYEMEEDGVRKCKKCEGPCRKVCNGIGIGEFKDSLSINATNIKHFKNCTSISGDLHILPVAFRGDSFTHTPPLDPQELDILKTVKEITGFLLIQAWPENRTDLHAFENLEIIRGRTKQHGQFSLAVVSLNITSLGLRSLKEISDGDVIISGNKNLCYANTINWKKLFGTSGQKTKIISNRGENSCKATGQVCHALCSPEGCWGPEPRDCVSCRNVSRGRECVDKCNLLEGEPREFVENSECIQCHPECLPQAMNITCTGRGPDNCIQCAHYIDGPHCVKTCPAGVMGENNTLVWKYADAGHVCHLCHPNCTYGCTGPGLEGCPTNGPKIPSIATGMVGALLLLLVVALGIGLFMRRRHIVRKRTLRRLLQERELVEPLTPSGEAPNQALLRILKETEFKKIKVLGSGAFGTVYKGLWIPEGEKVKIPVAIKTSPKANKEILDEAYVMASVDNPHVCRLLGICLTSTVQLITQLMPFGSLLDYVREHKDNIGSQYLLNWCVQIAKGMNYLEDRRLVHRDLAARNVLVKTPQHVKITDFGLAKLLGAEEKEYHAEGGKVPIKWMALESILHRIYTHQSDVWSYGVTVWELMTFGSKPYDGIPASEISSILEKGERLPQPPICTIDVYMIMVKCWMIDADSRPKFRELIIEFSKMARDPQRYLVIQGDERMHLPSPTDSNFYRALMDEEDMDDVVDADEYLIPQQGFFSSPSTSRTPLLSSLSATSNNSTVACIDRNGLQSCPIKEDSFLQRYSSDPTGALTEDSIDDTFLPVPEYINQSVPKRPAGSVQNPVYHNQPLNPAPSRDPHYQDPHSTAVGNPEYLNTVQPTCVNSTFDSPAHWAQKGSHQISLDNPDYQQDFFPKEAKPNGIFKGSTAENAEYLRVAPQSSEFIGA
Protocol: as §1, §2, §3

[4] = test system: A431; test: Cell proliferation IC50 assay (Cell Titer GLO), A431 cells; type: cell-based; settings: Homo sapiens
Protocol: as §1, §2, §3

[5] = A-431, Table 6, A431, 72 h, read-out: A431 IC50

| IC50 [1] | IC50 [2] | IC50 [3] | IC50 [4, 5] | SMILES | IC50 ([4]; A-431, 72 h, read-out: A431 IC50 (nM)) |
| --- | --- | --- | --- | --- | --- |
| 133 nM | 89.7 nM | < 0.24 nM | > 4000 nM | CCc1cc(Nc2ncc(-c3cnn(C)c3)c(Nc3ccccc3P(C)(C)=O)n2)c(OC)cc1N1CCC(N2CCN([C@H]3C[C@H](Oc4cc(F)cc5c4CN(C4CCC(=O)NC4=O)C5=O)C3)CC2)CC1 (stereo partly shown) [Example E222] | – |
| 1010 nM | 532 nM | 16.1 nM | 1350 nM | CCc1cc(Nc2nc(Nc3ccccc3P(C)(C)=O)c3cn[nH]c3n2)c(OC)cc1N1CCC(N2CCN(CCOc3cc4c(cc3F)C(=O)N(C3CCC(=O)NC3=O)C4)CC2)CC1 (stereo not shown) [Example E208] | – |
| > 4000 nM | > 4000 nM | 2.4 nM | > 4000 nM | CCc1cc(Nc2ncc(-c3ccnn3C)c(Nc3ccccc3P(C)(C)=O)n2)c(OC)cc1N1CCC(N2CCN(CCOc3cccc4c3CN(C3CCC(=O)NC3=O)C4=O)CC2)CC1 (stereo not shown) [Example E176] | – |
| 1530 nM | 181 nM | 21.7 nM | > 4000 nM | CCc1cc(Nc2ncc(Cl)c(Nc3ccccc3P(C)(C)=O)n2)c(OC)cc1N1CCC(N2Cc3ccc(Sc4cccc5c4CN(C4CCC(=O)NC4=O)C5=O)cc3C2)CC1 (stereo not shown) [Example E173] | – |
| 947 nM | 69.2 nM | 3.1 nM | 1150 nM | CCc1cc(Nc2ncc(Cl)c(Nc3ccccc3P(C)(C)=O)n2)c(OC)cc1N1CCC(N2CCN([C@H]3C[C@H](Oc4ccc5c(c4)CN(C4CCC(=O)NC4=O)C5=O)C3)CC2)CC1 (stereo partly shown) [Example E191] | – |
| > 4000 nM | 67.3 nM | 5.6 nM | 1400 nM | CCc1cc(Nc2ncc(Cl)c(Nc3ccccc3P(C)(C)=O)n2)c(OC)cc1N1CCC(N2CCN(CCCCNc3cccc4c3CN(C3CCC(=O)NC3=O)C4=O)CC2)CC1 (stereo not shown) [Example E119] | – |
| > 4000 nM | 65.9 nM | 26.3 nM | > 4000 nM | CCc1cc(N2CCC(N3CCN(CCCCOc4cccc5c4CN(C4CCC(=O)NC4=O)C5=O)CC3)CC2)c(CC)cc1Nc1nc(Nc2ccccc2P(C)(C)=O)c2cc[nH]c2n1 (stereo not shown) [Example E153] | – |
| 1200 nM | 105 nM | 35.2 nM | 1370 nM | CCc1cc(Nc2ncc(Cl)c(Nc3ccccc3P(C)(C)=O)n2)c(OC)cc1N1CCC(N2CCN(CCOc3cccc4c3CN(C3CCC(=O)NC3=O)C4=O)C3(CC3)C2)CC1 (stereo not shown) [Example E144] | – |
| > 4000 nM | 160 nM | 37.6 nM | > 4000 nM | CCc1cc(Nc2ncc(Cl)c(Nc3ccccc3P(C)(C)=O)n2)c(OC)cc1N1CCC2(CCN(CCCC#Cc3c(F)ccc4c3CN(C3CCC(=O)NC3=O)C4=O)CC2)CC1 (stereo not shown) [Example E74] | – |
| > 4000 nM | 57.8 nM | 14 nM | 1090 nM | CCc1cc(Nc2ncc(Cl)c(Nc3ccc4[nH]ncc4c3P(C)(C)=O)n2)c(OC)cc1N1CCC(N2CCN(CCC#Cc3cccc4c3CN(C3CCC(=O)NC3=O)C4=O)CC2)CC1 (stereo not shown) [Example E51] | – |
| > 4000 nM | 147 nM | 30.1 nM | > 4000 nM | CCc1cc(Nc2ncc(Cl)c(Nc3ccccc3P(C)(C)=O)n2)c(OC)cc1N1CCC(N2CCc3ccc(Oc4cccc5c4CN(C4CCC(=O)NC4=O)C5=O)cc3C2)CC1 (stereo not shown) [Example E76] | – |
| > 4000 nM | 112 nM | 6.3 nM | 1340 nM | CCc1cc(Nc2ncc(Cl)c(Nc3ccccc3P(C)(C)=O)n2)c(OC)cc1N1CCC(N2CCN(CCOc3cccc4c3CN(C3CCC(=O)NC3=O)C4=O)CC2=O)CC1 (stereo not shown) [Example E118] | – |
| > 4000 nM | 50.3 nM | 14.7 nM | > 4000 nM | CCc1cc(Nc2nc(Nc3ccccc3P(C)(C)=O)c3cc[nH]c3n2)c(OC)cc1N1CCC(N2CCN(CCCCOc3cc(F)cc4c3CN(C3CCC(=O)NC3=O)C4=O)CC2)CC1 (stereo not shown) [Example E141] | – |
| 1570 nM | 2000 nM | 56.1 nM | > 4000 nM | CCc1cc(Nc2ncc(-c3ccn(C)n3)c(Nc3ccccc3P(C)(C)=O)n2)c(OC)cc1N1CCC(N2CCN(CCOc3cccc4c3CN(C3CCC(=O)NC3=O)C4=O)CC2)CC1 (stereo not shown) [Example E147] | – |
| > 4000 nM | 41.5 nM | 11.7 nM | > 4000 nM | CCc1cc(Nc2nc(Nc3ccccc3P(C)(C)=O)c3cc[nH]c3n2)c(OC)cc1N1CCC(N2CCN(CCCCOc3cccc4c3CN(C3CCC(=O)NC3=O)C4=O)CC2)CC1 (stereo not shown) [Example E64] | – |
| 1290 nM | 3480 nM | 37.2 nM | > 4000 nM | CCc1cc(Nc2ncc(-c3nc(C)no3)c(Nc3ccccc3P(C)(C)=O)n2)c(OC)cc1N1CCC(N2CCN(CCOc3cccc4c3CN(C3CCC(=O)NC3=O)C4=O)CC2)CC1 (stereo not shown) [Example E149] | – |
| > 4000 nM | > 4000 nM | 9.3 nM | > 4000 nM | CCc1cc(Nc2ncc(C(=O)N3CCCC3)c(Nc3ccccc3P(C)(C)=O)n2)c(OC)cc1N1CCC(N2CCN(CCOc3cccc4c3CN(C3CCC(=O)NC3=O)C4=O)CC2)CC1 (stereo not shown) [Example E148] | – |
| > 4000 nM | 96.1 nM | 51.1 nM | > 4000 nM | COc1cc(N2CCC3(CCN(CCCC#Cc4cccc5c4CN(C4CCC(=O)NC4=O)C5=O)CC3)CC2)c(C2CC2)cc1Nc1ncc(Cl)c(Nc2ccccc2P(C)(C)=O)n1 (stereo not shown) [Example E62] | – |
| 1320 nM | > 4000 nM | 14.9 nM | > 4000 nM | CCc1cc(Nc2ncc(-c3cn(C)nn3)c(Nc3ccccc3P(C)(C)=O)n2)c(OC)cc1N1CCC(N2CCN(CCOc3ccc4c(c3)CN(C3CCC(=O)NC3=O)C4=O)CC2)CC1 (stereo not shown) [Example E193] | – |
| 1070 nM | > 4000 nM | 2.4 nM | > 4000 nM | CCc1cc(Nc2ncc(-c3cnn(C)c3)c(Nc3ccccc3P(C)(C)=O)n2)c(OC)cc1N1CCC(N2Cc3ccc(Oc4cccc5c4CN(C4CCC(=O)NC4=O)C5=O)cc3C2)CC1 (stereo not shown) [Example E172] | – |
| 496 nM | > 4000 nM | 0.8 nM | 1010 nM | CCc1cc(Nc2ncc(-c3cnn(C)c3)c(Nc3ccccc3P(C)(C)=O)n2)c(OC)cc1N1CCC(N2CCN(CCOc3cc4c(cc3F)C(=O)N(C3CCC(=O)NC3=O)C4)CC2)CC1 (stereo not shown) [Example E189] | – |
| 2070 nM | 143 nM | 13.1 nM | ≥ 3700 nM | CCc1cc(Nc2ncc(Cl)c(Nc3ccccc3P(C)(C)=O)n2)c(OC)cc1N1CCC2(CCN(C(=O)CCCOc3cccc4c3CN(C3CCC(=O)NC3=O)C4=O)CC2)CC1 (stereo not shown) [Example E90] | – |
| 1190 nM | 135 nM | 2 nM | 1290 nM | CCc1cc(Nc2nc(Nc3ccccc3P(C)(C)=O)c3cn[nH]c3n2)c(OC)cc1N1CCC(N2CCN(CCCCOc3cccc4c3CN(C3CCC(=O)NC3=O)C4=O)CC2)CC1 (stereo not shown) [Example E161] | – |
| 2090 nM | > 4000 nM | 1 nM | > 4000 nM | CCc1cc(Nc2ncc(-n3cnc(C)n3)c(Nc3ccccc3P(C)(C)=O)n2)c(OC)cc1N1CCC(N2CCN(CCOc3ccc4c(c3)CN(C3CCC(=O)NC3=O)C4=O)CC2)CC1 (stereo not shown) [Example E218] | – |
| 792 nM | 1100 nM | 124 nM | > 4000 nM | CCc1cc(Nc2nc(Nc3ccccc3P(C)(C)=O)c3cc[nH]c3n2)c(C(C)(C)O)cc1N1CCC(N2CCN(CCCCOc3cccc4c3CN(C3CCC(=O)NC3=O)C4=O)CC2)CC1 (stereo not shown) [Example E142] | – |
| 1320 nM | 67.1 nM | 22.7 nM | 1440 nM | CCc1cc(Nc2ncc(Cl)c(Nc3ccccc3P(C)(C)=O)n2)c(OC)cc1N1CCC(N2CCN(CCCCOc3ccc4c(c3F)CN(C3CCC(=O)NC3=O)C4=O)CC2)CC1 (stereo not shown) [Example E59] | – |
| > 4000 nM | 85.5 nM | 25.4 nM | 1970 nM | CCc1cc(Nc2ncc(Cl)c(Nc3ccccc3P(C)(C)=O)n2)c(OC)cc1N1CCC(N2CCN(C3(C#Cc4cccc5c4CN(C4CCC(=O)NC4=O)C5=O)CC3)CC2)CC1 (stereo not shown) [Example E84] | – |
| 2490 nM | 59.7 nM | 10.6 nM | 1990 nM | CCc1cc(Nc2ncc(Cl)c(Nc3ccccc3P(C)(C)=O)n2)c(OC)cc1N1CCC(N2CCN(CCOc3cc(F)cc4c3CN(C3CCC(=O)NC3=O)C4=O)CC2)CC1 (stereo not shown) [Example E66] | – |
| 90.7 nM | 43.4 nM | 5.6 nM | 1140 nM | CCc1cc(Nc2ncc(Cl)c(Nc3ccccc3N(C)S(C)(=O)=O)n2)c(OC)cc1N1CCC(N2CCN(CCC#Cc3cccc4c3CN(C3CCC(=O)NC3=O)C4=O)CC2)CC1 (stereo not shown) [Example E42] | – |
| 2700 nM | 59.9 nM | 9.1 nM | 1610 nM | CCc1cc(Nc2ncc(Cl)c(Nc3ccccc3P(C)(C)=O)n2)c(OC)cc1N1CCC(N2CCN(C(=O)CCCOc3cccc4c3CN(C3CCC(=O)NC3=O)C4=O)CC2)CC1 (stereo not shown) [Example E88] | – |

| SMILES | IC50 [1] | IC50 [2] | IC50 [3] | IC50 [4, 5] | IC50 ([4]; A-431, 72 h, read-out: A431 IC50 (nM)) |
| --- | --- | --- | --- | --- | --- |
| CCc1cc(Nc2ncc(-c3cnn(C)c3)c(Nc3ccccc3P(C)(C)=O)n2)c(OC)cc1N1CCC(N2CCN(CCN(C)c3ccc4c(c3)CN(C3CCC(=O)NC3=O)C4=O)CC2)CC1 (stereo not shown) [Example E224] | 654 nM | > 4000 nM | 0.9 nM | – | > 4000 nM |
